Reference: publication PMC9084902, “Low-Molecular Weight Protamine Overcomes Chondroitin Sulfate Inhibition of Neural Regeneration” (Frontiers in Cell and Developmental Biology, 2022)
Entries after “also recorded” stand apart in the source; their conditions may differ.

Key:
[1] = system: mouse cervical hemisection model; assay: cylinder test, C5 hemisection, ICV delivery; format: in vivo, C57BL6/NHsd mouse; conditions: n = 5–10
Protocol: (§1) The mouse was placed into the glass cylinder of 13 cm in diameter and 15 cm high. A mirror was positioned at the angle behind the cylinder for better observation. The mouse was videotaped for the first 20 exploratory vertical rearings or for 5 min. The number of rearings in which the mouse used the right (impaired), the left or both limbs for support against the wall was measured. Paw preference was calculated as the ratio of total number of left limb use (left + both) to total number of right (impaired) limb use (right + both). A trial with less than 5 rearings within 5 min was excluded from the analysis.

[2] = system: mouse cervical hemicontusion model; assay: frontpaw grip strength, C5 hemicontusion, subcutaneous delivery; format: in vivo, C57BL6/NHsd mouse; conditions: 16 µg s.c. daily 49 days
Protocol: (§2) The effectiveness of systemically delivered LMWP in treatment of spinal cord trauma was tested in the cervical hemicontusion model (Figure 1B). Baseline behavior was assessed 1 week before the trauma surgery, and the results were used for balanced distribution of animals to the 3 experimental groups (“sham”, “trauma + PBS” and “trauma + LMWP”). Each housing cage contained animals from all three groups. Subcutaneous injections to the back area were started on the next day after the trauma and continued daily for 49 days. LMWP was injected subcutaneously at the 16 µg dose in 200 µl of sterile PBS. The groups “sham” and “trauma + PBS” got the same volume of PBS. Behavioral assessment was started 2 weeks after the trauma and finished at the week 12.

[3] = system: mouse cervical hemicontusion model; assay: cylinder test, C5 hemicontusion, ICV delivery; format: in vivo, C57BL6/NHsd mouse; conditions: ICV LMWP; weeks 4, 6 and 8; n = 6–11
Protocol: as §1

cortical neurons = assay: neurite outgrowth on aggrecan substrate, cortical neurons; format: cell-based, Wistar rat
Protocol: The cortex or hippocampus were obtained from 17 days-old Wistar rat embryos and transferred to ice-cold preparation solution. Neurons were further isolated exactly as described earlier in Sahu’s publication ([Sahu et al., 2019]). Primary rat cortical or hippocampal neurons (E17 Wistar rats) were cultured in 96-well plates at the density of 20000 cells/well in Neurobasal medium supplemented with B27 serum substitute, penicillin, streptomycin and L-glutamate for 2 days in vitro (DIV). The plates were precoated with aggrecan (5 ug/ml, 150 µl/well). Protamine or protamine peptides were added to the culture medium at different concentrations. To analyze the effect of protamine or its fragment on neurite outgrowth, the plates were coated with 10 μg/ml of protamine or LMWP. For the experiment with chondroitinase, the aggrecan-coated plates were treated with chondroitinase ABC (Amsbio AMS. E1028, lot CF0029) for 4 h followed by 2 times washing with PBS before cell plating, and the cell culture imaging was carried out after 3 DIV incubation with 4 uM LMWP added to the medium. Neurite outgrowth was imaged with phase contrast microscopy (Olympus IX70 microscope and Retiga 2000R digital camera) using both x10 and x20 objectives. […] Neurite length was measured with ImageJ software and averaged from 2 to 3 independent experiments with 1–2 technical replicas in each independent experiment.

[4] = system: mouse cervical hemisection model; assay: vertical screen test, C5 hemisection, ICV delivery; format: in vivo, C57BL6/NHsd mouse; conditions: n = 5–10
Protocol: (§3) The mouse was placed on the brink of a horizontal wire screen (25 × 22 cm, diameter of wires 2 mm spaced at 1 cm) faced to edge. Immediately after that the screen was turned vertically to place the mouse to the upside down position at the lower edge. The time that the animal needed to climb to the upper edge was measured during 1 min. If the animal was not able to climb up or fell down from the screen the maximum time 60 s was marked as the climbing time. The average parameter of three subsequent trials repeated with at least 1 min interval was used for data analysis.

[5] = system: mouse cervical hemicontusion model; assay: cylinder test, C5 hemicontusion, subcutaneous delivery; format: in vivo, C57BL6/NHsd mouse; conditions: 16 µg s.c. daily 49 days; n = 7–13; difference not statistically significant
Protocol: as §2, §1

[6] = system: PTPσ ectodomain binding to aggrecan; assay: solid phase binding of wild-type PTPσ ectodomain to aggrecan, competition by LMWP
Excerpt: The N-terminal extracellular part of PTPσ (protein tyrosine phosphatase sigma; PTPRS) that contains the three Ig domains (amino acids 1-321) and mediates CSPG binding ([Shen et al., 2009]) was cloned using the PTPσ cDNA kindly provided by Dr. John Flanagan (Harvard University). The PTPσ mutant lacking the CS binding site in the Ig1 domain was produced as described ([Shen et al., 2009]). The recombinants were produced as Fc-tagged proteins in 293T HEK cells and purified on protein A Sepharose.
The competition assay for LMWP in binding of PTPσ to aggrecan was done in a similar way as earlier ([Paveliev et al., 2016]). Briefly, after overnight coating with 10 μg/ml aggrecan (150 ul/well) at 4°C 96-well tissue culture plates (Nunc) were washed two times with 0.05% Tween-20 in PBS and were blocked for 1 h at room temperature with 1%BSA and 0.05% Tween-20 in PBS. The recombinant wild type PTPσ ectodomain or the mutated ectodomain lacking CS binding (80 nM) were mixed with different concentrations of LMWP in 1% BSA and 0.05% Tween-20 in PBS, and were incubated in the plates overnight at 4°C. After washing with 0.05% Tween20 (3 times, room temperature), the wells were incubated for 1 h (room temperature) with HRP conjugated goat anti-human FC part of IgG (1:5000, in 1% BSA and 0.05% Tween20 PBS) to detect the bound PTPσ. […]

[7] = system: mouse cervical hemicontusion model; assay: vertical screen (climbing) test, C5 hemicontusion, subcutaneous delivery; format: in vivo, C57BL6/NHsd mouse; conditions: 16 µg s.c. daily 49 days; n = 7–13
Protocol: as §2, §3

hippocampal neurons = assay: neurite outgrowth on aggrecan substrate, hippocampal neurons; format: cell-based, Wistar rat; conditions: 10 μg/ml, n = 3
Protocol: The cortex or hippocampus were obtained from 17 days-old Wistar rat embryos and transferred to ice-cold preparation solution. Neurons were further isolated exactly as described earlier in Sahu’s publication ([Sahu et al., 2019]). Primary rat cortical or hippocampal neurons (E17 Wistar rats) were cultured in 96-well plates at the density of 20000 cells/well in Neurobasal medium supplemented with B27 serum substitute, penicillin, streptomycin and L-glutamate for 2 days in vitro (DIV). The plates were precoated with aggrecan (5 ug/ml, 150 µl/well). Protamine or protamine peptides were added to the culture medium at different concentrations. To analyze the effect of protamine or its fragment on neurite outgrowth, the plates were coated with 10 μg/ml of protamine or LMWP. For the experiment with chondroitinase, the aggrecan-coated plates were treated with chondroitinase ABC (Amsbio AMS. E1028, lot CF0029) for 4 h followed by 2 times washing with PBS before cell plating, and the cell culture imaging was carried out after 3 DIV incubation with 4 uM LMWP added to the medium. Neurite outgrowth was imaged with phase contrast microscopy (Olympus IX70 microscope and Retiga 2000R digital camera) using both x10 and x20 objectives. Processes of neurons over the diameter of the neuronal soma were interpreted as neurites. Neurite length was measured with ImageJ software and averaged from 2 to 3 independent experiments with 1–2 technical replicas in each independent experiment.

[8] = ICV LMWP 4 µl of 1 mg/ml daily, 6 days from day 3

VSRRRRRRGGRRRR [LMWP, low-molecular weight protamine]
front paw use asymmetry (injured versus non-injured side) [1, 8]: reduction of front paw use asymmetry at the weeks 2, 4, 8 and 9 after the trauma; also recorded: less asymmetry in frontpaw use when the injured side was compared to the non-injured side
ipsilateral paw use [1, 8]: partially improved the ipsilateral paw use
ipsilateral paw use versus sham ([1]; ICV LMWP, week 2 p = 0.4201, week 4 p = 0.2766, week 8 p = 0.1092, week 9 p = 0.1659, PBS group differed from sham at all weeks): not significantly different from the sham animals
grip strength versus PBS ([2]; week 6 p = 0.0449, week 9 p = 0.0221, one-way ANOVA with Tukey's): significantly increased grip strength parameters on the week 6 and the week 12; also recorded: significant increase of frontpaw grip strength in comparison with the PBS-treated animals on the weeks 6 and 9
grip strength versus PBS, week 12 ([2]; week 12 p = 0.0558, one-way ANOVA with Tukey's): trend towards increased grip strength on the week 12
ipsilateral front paw use versus sham [3]: reduction in front paw use asymmetry starting from the week 4 after the trauma; also recorded: not significantly different from the sham group on the weeks 4, 6 and 8 after the trauma
stimulation of neurite outgrowth versus 0 μg/ml (cortical neurons; LMWP in medium at 1.75 µM (3.3 μg/ml), p = 0.0319, n = 6, Figure 5A): ~6 times
stimulation of neurite outgrowth versus 0 μg/ml (cortical neurons; LMWP in medium at 3.5 µM (6.6 μg/ml), p < 0.0001, n = 6, Figure 5A): more than 20 times
climbing time in vertical screen, time course ([4]; ICV LMWP 4 µl of 1 mg/ml daily, 6 days from day 3, weeks 2-9): progressively reduced the climbing time
climbing time difference versus PBS-treated group ([4]; ICV LMWP, week 9, p = 0.0304, Kruskal-Wallis with Dunn's): reached a statistically significant level at the week 9 after the trauma
front paw use asymmetry versus PBS [5]: tendency for better improvement of the LMWP group compared to the PBS group although the difference was not statistically significant
inhibition of PTPσ binding to aggrecan ([6]; 80 nM PTPσ-Fc, 10 μg/ml aggrecan coating, increasing LMWP, overnight 4°C, HRP anti-Fc/OPD 492 nm, n = 3, Figure 5C): progressively decreased by increasing LMWP concentrations; also recorded: clearly inhibited PTPσ binding to aggrecan in a similar manner as HB-GAM
similarity of LMWP to mutated PTPσ in binding suppression ([6]; aggrecan substrate, increasing LMWP concentrations): mimicked the binding suppression effect seen with the mutated PTPσ
climbing test recovery versus PBS [7]: tendency for better recovery in the LMWP group compared to the PBS group
reversal of the inhibitory effect of aggrecan on neurite outgrowth (comparison among fragments) (hippocampal neurons; hippocampal neurons (E17 rat), 2 days on aggrecan, precoated with aggrecan or soluble in medium, about 70 neurons/replicate, normalized to control, Figure 2L): more effective in reversing the inhibitory effect of aggrecan than the 22 amino acid fragment or the full-length protamine
length of the longest neurite, versus uncoated control (hippocampal neurons; precoated with aggrecan, 2 days, 10 neurons per condition per experiment, Supplementary Figure S1B,E): slightly reduces the length of the longest neurite
increase in number of branches (hippocampal neurons; precoated with aggrecan, 2 days, 10 neurons per condition per experiment, Supplementary Figure S1C,F): 3 fold
total neurite length (hippocampal neurons; precoated with aggrecan, 2 days, Figure 2 and Supplementary Figure S1A,D): increase in the total neurite length
